Experimental data: ChEMBL document CHEMBL4390661, “Pyridazinone-substituted benzenesulfonamides display potent inhibition of membrane-bound human carbonic anhydrase IX and promising antiproliferative activity against cancer cell lines” (Eur J Med Chem, 2019)
The source made the active and inactive calls. The rule behind the calls is not given here.

Assays:
[1] = test system: ARPE-19; assay: Cytotoxicity against human ARPE19 cells assessed as reduction in cell viability incubated for 48 hrs under hypoxia condition by MTT assay relative to control; assay type: cell-based; details: arpe-19, 48 h
[2] = molecular target: T1, Carbonic anhydrase 12 (Homo sapiens, UniProt O43570); assay: Inhibition of membrane bound human CA 12 preincubated for 15 mins by phenol red dye-based stopped-flow CO2 hydration assay
[3] = test system: ARPE-19; assay: Cytotoxicity against human ARPE19 cells assessed as reduction in cell viability incubated for 48 hrs under normoxic condition by MTT assay relative to control; assay type: cell-based; details: arpe-19, 48 h
[4] = test system: PANC-1; assay: Cytotoxicity against human PANC1 cells assessed as reduction in cell viability incubated for 48 hrs under hypoxia condition by MTT assay relative to human ARPE19 cells; assay type: functional
[5] = molecular target: Carbonic anhydrase 9 (Homo sapiens, UniProt Q16790); assay: Inhibition of membrane bound human CA 9 preincubated for 15 mins by phenol red dye-based stopped-flow CO2 hydration assay
[6] = molecular target: Carbonic anhydrase 1 (Homo sapiens, UniProt P00915); assay: Inhibition of human cytosolic CA 1 preincubated for 15 mins by phenol red dye-based stopped-flow CO2 hydration assay
[7] = molecular target: Carbonic anhydrase 2 (Homo sapiens, UniProt P00918); assay: Inhibition of human cytosolic CA 2 preincubated for 15 mins by phenol red dye-based stopped-flow CO2 hydration assay
[8] = test system: SK-MEL-2; assay: Cytotoxicity against human SK-MEL-2 cells assessed as reduction in cell viability incubated for 48 hrs under normoxic condition by MTT assay relative to control; assay type: functional, cell-based
[9] = test system: SK-MEL-2; assay: Cytotoxicity against human SK-MEL-2 cells assessed as reduction in cell viability incubated for 48 hrs under hypoxia condition by MTT assay relative to control; assay type: functional, cell-based
[10] = test system: PANC-1; assay: Cytotoxicity against human PANC1 cells assessed as reduction in cell viability incubated for 48 hrs under hypoxia condition by MTT assay; assay type: functional, cell-based
[11] = test system: PANC-1; assay: Cytotoxicity against human PANC1 cells assessed as reduction in cell viability incubated for 48 hrs under hypoxia condition by MTT assay relative to control; assay type: functional, cell-based
[12] = test system: PANC-1; assay: Cytotoxicity against human PANC1 cells assessed as reduction in cell viability incubated for 48 hrs under normoxic condition by MTT assay relative to control; assay type: functional, cell-based
[13] = molecular target: T1, Carbonic anhydrase 12
Description: Inhibition of human CA 12 catalytic domain

[14] = test system: SK-MEL-2; assay: Cytotoxicity against human SK-MEL-2 cells assessed as reduction in cell viability at 300 uM incubated for 48 hrs under normoxic condition by MTT assay relative to control; assay type: functional, cell-based

Sequence of Carbonic anhydrase 1 (P00915 whole entry): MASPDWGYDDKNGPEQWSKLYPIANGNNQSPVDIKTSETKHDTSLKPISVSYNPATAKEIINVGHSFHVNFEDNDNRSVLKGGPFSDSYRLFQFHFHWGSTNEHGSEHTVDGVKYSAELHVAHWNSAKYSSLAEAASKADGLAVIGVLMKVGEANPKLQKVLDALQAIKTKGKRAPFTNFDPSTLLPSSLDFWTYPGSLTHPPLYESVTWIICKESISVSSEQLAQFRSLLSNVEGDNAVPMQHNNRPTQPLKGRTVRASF
T1 sequence (O43570 whole entry): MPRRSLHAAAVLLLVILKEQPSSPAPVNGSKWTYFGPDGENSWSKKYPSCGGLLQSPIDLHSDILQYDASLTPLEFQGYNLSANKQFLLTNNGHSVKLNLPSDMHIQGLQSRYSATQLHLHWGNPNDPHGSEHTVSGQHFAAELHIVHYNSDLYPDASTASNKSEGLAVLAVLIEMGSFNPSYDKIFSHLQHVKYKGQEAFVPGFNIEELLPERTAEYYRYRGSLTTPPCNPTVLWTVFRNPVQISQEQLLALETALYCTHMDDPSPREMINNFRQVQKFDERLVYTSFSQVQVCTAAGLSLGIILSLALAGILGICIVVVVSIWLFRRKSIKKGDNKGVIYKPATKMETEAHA

Structure (SMILES)	Activity [1]	Ki [2] [nM]	Activity [3]	Activity [4] [%]	Ki [5] [nM]	Ki [6] [nM]	Ki [7] [nM]	Activity [8]	Activity [9]	Activity [10]	Activity [11]	Activity [12]	Ki [13] [nM]	Activity [14]
NS(=O)(=O)c1ccc(-n2ncc(N3CCCCCC3)c(Cl)c2=O)cc1	Dose-dependent effect	8.4	Dose-dependent effect	>30	0.49	97.4	0.06	–	–	–	–	–	–	–
NS(=O)(=O)c1ccc(-n2ncc(NCCCN3CCOCC3)c(Cl)c2=O)cc1	–	10.1	–	–	2.8	481	0.67	–	–	–	–	–	–	–
NS(=O)(=O)c1ccc(-n2ncc(NCc3ccccc3)c(Cl)c2=O)cc1	–	9.4	–	–	0.67	95.1	0.09	–	–	–	–	–	–	–
NS(=O)(=O)c1ccc(N2N=C(c3ccccc3)CCC2=O)cc1	–	22.5	–	–	4.8	187	0.26	–	–	–	–	–	–	–
NS(=O)(=O)c1ccc(-n2nc(-c3ccccc3O)ccc2=O)cc1	–	9.3	–	–	0.46	84.1	0.62	–	–	–	–	–	–	–
NS(=O)(=O)c1ccc(-n2ncc(N3CCOCC3)cc2=O)cc1	–	9.8	–	–	2.1	292	0.55	–	–	–	–	–	–	–
NS(=O)(=O)c1ccc(-n2ncc(Cl)c(Cl)c2=O)cc1	–	9.9	–	>30	8.7	482	2.3	–	–	–	–	–	–	–
CCN1CCN(c2cnn(-c3ccc(S(N)(=O)=O)cc3)c(=O)c2Cl)CC1	Non-Toxic	7.2	Non-Toxic	>30	0.7	485	0.29	inactive	inactive	inactive	inactive	inactive	–	–
NS(=O)(=O)c1ccc(-n2ncc3ccccc3c2=O)cc1	–	50.6	–	–	0.32	72.3	0.23	–	–	–	–	–	–	–
NS(=O)(=O)c1ccc(-n2nc(-c3ccncc3)ccc2=O)cc1	–	8.7	–	–	50.8	227	4.8	–	–	–	–	–	–	–
NS(=O)(=O)c1ccc(N2N=C(c3ccc(Cl)c(Cl)c3)CCC2=O)cc1	–	67.1	–	–	6	5960	74.1	–	–	–	–	–	–	–
NS(=O)(=O)c1ccc(-n2ncc(N3CCc4ccccc4C3)c(Cl)c2=O)cc1	–	85.5	–	–	89.6	738	60.5	–	–	–	–	–	–	–
NS(=O)(=O)c1ccc(-n2ncc(N3CCCCCC3)cc2=O)cc1	–	6.3	–	–	0.56	88.2	0.08	–	–	–	–	–	–	–
Cc1cc(-c2cccnc2)nn(-c2ccc(S(N)(=O)=O)cc2)c1=O	–	8.8	–	–	2.3	101	2.9	–	–	–	–	–	–	–
NS(=O)(=O)c1ccc(-n2nc(-c3ccc4c(c3)OCO4)ccc2=O)cc1	–	63.7	–	–	28.2	99	1.4	–	–	–	–	–	–	–
NS(=O)(=O)c1ccc(-n2ncccc2=O)cc1	Non-Toxic	81.2	Non-Toxic	>30	9	320	8.2	inactive	inactive	inactive	inactive	inactive	–	–
NS(=O)(=O)c1ccc(S(=O)(=O)Nc2cccc3c(Cl)c[nH]c23)cc1	–	–	–	–	–	–	–	–	–	–	–	–	3	–
NS(=O)(=O)c1ccc(-n2ncc(N3CCOCC3)c(Cl)c2=O)cc1	–	36	Non-Toxic	>30	0.58	89	0.07	Dose-dependent effect	Dose-dependent effect	–	–	–	–	–
COc1ccc(C2=NN(c3ccc(S(N)(=O)=O)cc3)C(=O)CC2)cc1	Dose-dependent effect	9.9	Dose-dependent effect	>30	2.4	92.7	0.08	–	–	–	–	–	–	–
Cc1nn(-c2ccc(S(N)(=O)=O)cc2)c(=O)c2ccccc12	–	9	–	–	0.24	89.7	0.03	–	–	–	–	–	–	–
NS(=O)(=O)c1ccc(-n2ncc(N3CCN(c4ccccn4)CC3)c(Cl)c2=O)cc1	–	105	–	>30	89.5	676	46.6	–	–	–	–	–	–	–
CCN1CCN(c2cnn(-c3ccc(S(N)(=O)=O)cc3)c(=O)c2)CC1	–	25.3	–	–	41.3	311	4.3	–	–	–	–	–	–	Active
COc1ccc2cnn(-c3ccc(S(N)(=O)=O)cc3)c(=O)c2c1OC	–	66.4	–	–	8.9	90.7	3.5	–	–	–	–	–	–	–
CC1=NN(c2ccc(S(N)(=O)=O)cc2)C(=O)CC1	–	31	–	>30	32.8	88.2	0.68	–	–	–	–	–	–	–
